Numbers after ± are expanded uncertainties.
How the values were obtained:
[1] = relative permittivity at zero frequency (dimensionless); settings: 100 kPa, Liquid, Dielectrometer
[2] = relative permittivity at zero frequency (dimensionless); xn = mol fraction of the nth substance listed; settings: 100 kPa, Liquid, Dielectrometer

Row | Compound | relative permittivity at zero frequency ([1]; 288.15 K) | relative permittivity at zero frequency ([1]; 293.15 K) | relative permittivity at zero frequency ([1]; 298.15 K) | relative permittivity at zero frequency ([1]; 303.15 K) | relative permittivity at zero frequency ([1]; 308.15 K) | relative permittivity at zero frequency ([2]; 288.15 K, x2 = 0) | relative permittivity at zero frequency ([2]; 293.15 K, x2 = 0) | relative permittivity at zero frequency ([2]; 298.15 K, x2 = 0) | relative permittivity at zero frequency ([2]; 303.15 K, x2 = 0) | relative permittivity at zero frequency ([2]; 308.15 K, x2 = 0) | further results
1 | CC(C)(C)O [2-methylpropan-2-ol] | 14.49 ± 0.06 | 13.38 ± 0.06 | 12.49 ± 0.06 | 11.34 ± 0.06 | 10.4 ± 0.06 | – | – | – | – | – | –
2 | CC(C)CO [2-methyl-1-propanol] | 19.51 ± 0.06 | 18.71 ± 0.06 | 17.96 ± 0.06 | 17.23 ± 0.06 | 16.53 ± 0.06 | – | – | – | – | – | –
3 | CCCCO [butan-1-ol] + CCC(C)O | – | – | – | – | – | 19.01 ± 0.06 | 18.28 ± 0.06 | 17.58 ± 0.06 | 16.91 ± 0.06 | 16.26 ± 0.06 | –
4 | CCC(C)O (stereo not given) [butan-2-ol] | 18.47 ± 0.06 | 17.51 ± 0.06 | 16.6 ± 0.06 | 15.75 ± 0.06 | 14.94 ± 0.06 | – | – | – | – | – | –
5 | CCC(C)O (stereo not given) [butan-2-ol] + CC(C)(C)O | – | – | – | – | – | 18.47 ± 0.06 | 17.51 ± 0.06 | 16.6 ± 0.06 | 15.75 ± 0.06 | 14.94 ± 0.06 | –
6 | CCCCO [butan-1-ol] + CC(C)(C)O | – | – | – | – | – | 19.01 ± 0.06 | 18.28 ± 0.06 | 17.58 ± 0.06 | 16.91 ± 0.06 | 16.26 ± 0.06 | –
7 | CC(C)(C)O [2-methylpropan-2-ol] + CC(C)CO | – | – | – | – | – | – | – | – | – | – | relative permittivity at zero frequency ([2]; 288.15 K, x1 = 1): 14.49 ± 0.06; relative permittivity at zero frequency ([2]; 293.15 K, x1 = 1): 13.38 ± 0.06; relative permittivity at zero frequency ([2]; 298.15 K, x1 = 1): 12.49 ± 0.06; relative permittivity at zero frequency ([2]; 303.15 K, x1 = 1): 11.34 ± 0.06; relative permittivity at zero frequency ([2]; 308.15 K, x1 = 1): 10.4 ± 0.06
8 | CCCCO [butan-1-ol] + CC(C)CO | – | – | – | – | – | 19.01 ± 0.06 | 18.28 ± 0.06 | 17.58 ± 0.06 | 16.91 ± 0.06 | 16.26 ± 0.06 | –
9 | CCCCO [butan-1-ol] | 19.01 ± 0.06 | 18.28 ± 0.06 | 17.58 ± 0.06 | 16.91 ± 0.06 | 16.26 ± 0.06 | – | – | – | – | – | –
10 | CCC(C)O (stereo not given) [butan-2-ol] + CC(C)CO | – | – | – | – | – | – | – | – | – | – | relative permittivity at zero frequency ([2]; 288.15 K, x1 = 1): 18.47 ± 0.06; relative permittivity at zero frequency ([2]; 293.15 K, x1 = 1): 17.51 ± 0.06; relative permittivity at zero frequency ([2]; 298.15 K, x1 = 1): 16.6 ± 0.06; relative permittivity at zero frequency ([2]; 303.15 K, x1 = 1): 15.75 ± 0.06; relative permittivity at zero frequency ([2]; 308.15 K, x1 = 1): 14.94 ± 0.06

— the NIST ThermoML archive (doi:10.1021/je3007666)
